Several values for one entry are separate records, joined by “and”; a condition that tells them apart may be missing. Equal values may be shown once.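 In this assay, cells in 96-well plates receive the compound at five concentrations for 48 hours. Endpoints are linearly interpolated between the surrounding concentrations. GI50 = concentration required for 50% inhibition of growth.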 Activity calls are given as the source filed them. Cut-off read from the data, not from the text of the source: active = GI50 up to about 1.1 µM and inactive = higher.
Tests used:
Assay in all cases: NCI-60 cell line screen, 48 h
ACHN = test system: ACHN
SNB-19 = test system: SNB-19
SNB-75 = test system: SNB-75
HCC 2998 = test system: HCC 2998
OVCAR-5 = test system: OVCAR-5
NCI-H226 = test system: NCI-H226
CAKI-1 = test system: CAKI-1
LOX IMVI = test system: LOX IMVI
M14 = test system: M14
SF-295 = test system: SF-295
UO-31 = test system: UO-31
SW-620 = test system: SW-620
SF-268 = test system: SF-268
HCT-116 = test system: HCT-116
HT-29 = test system: HT-29
NCI-H460 = test system: NCI-H460
SK-MEL-5 = test system: SK-MEL-5
OVCAR-4 = test system: OVCAR-4

Measured: GI50

COc1ccc(C(=O)CC2=Nc3nnc(CCCCCCCc4nnc5n4C(=O)C(CC(=O)c4ccc(OC)cc4)=N5)n3C2=O)cc1
inactive: ACHN > 100 µM | SNB-19 > 100 µM | SNB-75 31.6 µM | HCC 2998 > 100 µM | OVCAR-5 > 100 µM | NCI-H226 > 100 µM | CAKI-1 > 100 µM | LOX IMVI > 100 µM | M14 > 100 µM | SF-295 > 100 µM | UO-31 > 100 µM | SW-620 > 100 µM | SF-268 > 100 µM | HCT-116 > 100 µM | HT-29 > 100 µM | NCI-H460 > 100 µM | SK-MEL-5 > 100 µM

CCOC(=O)C(=O)CC1=Nc2ccccc2SC(c2cccc(C)c2)C1 (centres undefined)
inactive: ACHN 16.6 µM | OVCAR-4 18 µM | SNB-19 18.3 µM | SNB-75 18.9 µM | HCC 2998 16.3 µM | OVCAR-5 16.8 µM | NCI-H226 16.9 µM | CAKI-1 21.9 µM | M14 18.6 µM | UO-31 15.4 µM | SW-620 25.6 µM | SF-268 16.8 µM | HCT-116 14.7 µM | HT-29 15.5 µM | NCI-H460 19.5 µM | SK-MEL-5 18.2 µM

O=C(O)c1ccc([C@@H]2C(=O)N(O)[C@@H]3C=CC[C@@H]32)cc1
inactive: SNB-19 > 100 µM | SNB-75 > 100 µM | HCC 2998 > 100 µM | NCI-H226 > 100 µM | CAKI-1 > 100 µM | LOX IMVI > 100 µM | M14 > 100 µM | SF-295 > 100 µM | UO-31 > 100 µM | SW-620 > 100 µM | SF-268 > 100 µM | HT-29 > 100 µM | SK-MEL-5 > 100 µM

N#CC(C(=O)CCCC(=O)Nc1ccc(Cl)cc1Cl)c1ccccc1 (centres undefined)
inactive: ACHN > 100 µM | OVCAR-4 > 100 µM | SNB-19 > 100 µM | HCC 2998 > 100 µM | OVCAR-5 > 100 µM | NCI-H226 > 100 µM | CAKI-1 > 100 µM | LOX IMVI > 100 µM | M14 > 100 µM | SF-295 > 100 µM | UO-31 > 100 µM | SW-620 > 100 µM | SF-268 > 100 µM | HCT-116 > 100 µM | HT-29 > 100 µM | NCI-H460 > 100 µM | SK-MEL-5 > 100 µM

COc1cc(C2C(C(=O)Nc3ccc(Cl)c(Cl)c3)=C(C)NC(C)=C2C(=O)Nc2ccc(Cl)c(Cl)c2)ccc1O
inactive: ACHN 10.8 µM | OVCAR-4 5.3 µM | SNB-19 12.3 µM | SNB-75 10.3 µM | HCC 2998 11.4 µM | OVCAR-5 19.4 µM | NCI-H226 16.7 µM | CAKI-1 14 µM | LOX IMVI 11.4 µM | M14 12.6 µM | SF-295 18.4 µM | UO-31 12 µM | SW-620 12.3 µM | SF-268 11.7 µM | HT-29 15.1 µM | NCI-H460 12.8 µM | SK-MEL-5 12.2 µM

COc1cc2c(cc1OC)C(C#N)N(C(=O)c1ccccc1)C=C2OC(=O)c1ccccc1 (centres undefined)
inactive: ACHN 20 µM | SNB-19 23.6 µM | SNB-75 17 µM | HCC 2998 45.1 µM | OVCAR-5 > 100 µM | NCI-H226 23.2 µM | LOX IMVI 39.4 µM | M14 37.8 µM | SF-295 22.5 µM | UO-31 20.4 µM | SW-620 33 µM | SF-268 30.8 µM | HT-29 48.5 µM | NCI-H460 36.4 µM | SK-MEL-5 23.9 µM

CC1OC(OC2C(OC(=O)[C@]34CCC(C)(C)C[C@H]3C3=CC[C@@H]5[C@@]6(C)CC[C@H](OC7OC(C(=O)O)C(O)C(O)C7O)C(C)(C)[C@@H]6CC[C@@]5(C)[C@]3(C)C[C@H]4O)OCC(O)C2O)C(O)C(O)C1OC1OCC(O)C(O)C1O (some centres undefined)
inactive: ACHN 9.35 µM | OVCAR-4 17.8 µM | SNB-19 12.6 µM and 8.09 µM | SNB-75 15.9 µM and 16.9 µM | OVCAR-5 10.5 µM and 14.9 µM | NCI-H226 4.57 µM and 7.19 µM | CAKI-1 12.7 µM and 7.74 µM | LOX IMVI 15.5 µM and 10.7 µM | M14 13.7 µM and 8.59 µM | SF-295 10.1 µM and 15.5 µM | UO-31 7.29 µM and 11.6 µM | SW-620 13 µM and 16.3 µM | SF-268 11.6 µM and 19.3 µM | HCT-116 14.1 µM and 9.89 µM | HT-29 7.62 µM and 5.18 µM | NCI-H460 22 µM and 17 µM | SK-MEL-5 16.8 µM and 18.9 µM

COC(=O)C1=CCC2c3[nH]c4ccccc4c3CCN2C1 (centres undefined)
inactive: ACHN > 354 µM | SNB-19 193 µM | HCC 2998 > 354 µM | NCI-H226 203 µM | CAKI-1 > 354 µM | LOX IMVI > 354 µM | SF-295 > 354 µM | SW-620 > 354 µM | SF-268 > 354 µM | HCT-116 242 µM | HT-29 > 354 µM | NCI-H460 > 354 µM | SK-MEL-5 > 354 µM

C/C=C(/CCCCNCCCC)[Si](C)(C)C
inactive: ACHN 14 µM | SNB-19 17.7 µM | SNB-75 13.5 µM | HCC 2998 5.66 µM | OVCAR-5 14.4 µM | LOX IMVI 14.2 µM | M14 14.4 µM | SF-295 15.8 µM | UO-31 17.5 µM | SW-620 16.6 µM | SF-268 12.3 µM | HCT-116 12.4 µM | HT-29 3.94 µM | NCI-H460 15.6 µM | SK-MEL-5 13.3 µM

CC(C)(C)OC(=O)N[C@H]1CC(=O)c2ccccc2N(CC(=O)O)C1=O
inactive: ACHN > 100 µM | OVCAR-4 > 100 µM | SNB-19 > 100 µM | SNB-75 81.1 µM | HCC 2998 > 100 µM | NCI-H226 > 100 µM | CAKI-1 > 100 µM | LOX IMVI > 100 µM | M14 > 100 µM | SF-295 > 100 µM | UO-31 > 100 µM | SW-620 > 100 µM | SF-268 > 100 µM | HCT-116 26.5 µM | HT-29 > 100 µM | NCI-H460 > 100 µM | SK-MEL-5 > 100 µM

CC(=O)O[C@]12CCC[C@H]1C1(O)C(O)CCC[C@H]12 (some centres undefined)
inactive: ACHN > 100 µM | OVCAR-4 > 100 µM | SNB-19 > 100 µM | SNB-75 > 100 µM | NCI-H226 > 100 µM | LOX IMVI > 100 µM | M14 > 100 µM | SF-295 > 100 µM | UO-31 > 100 µM | SW-620 > 100 µM | SF-268 > 100 µM | HCT-116 > 100 µM | HT-29 > 100 µM | NCI-H460 > 100 µM | SK-MEL-5 > 100 µM

CCCCCCCCOCC(CO)OCCCCCCCC (centres undefined)
inactive: ACHN 17.2 µM | OVCAR-4 19.2 µM | SNB-19 23.7 µM | HCC 2998 18.9 µM | OVCAR-5 17.9 µM | NCI-H226 24.4 µM | CAKI-1 30.5 µM | LOX IMVI 17.6 µM | M14 26.1 µM | SF-295 16.3 µM | UO-31 20 µM | SW-620 19.8 µM | SF-268 15 µM | HCT-116 19.4 µM | HT-29 20.6 µM | NCI-H460 15.8 µM | SK-MEL-5 17.9 µM
